This is an account of results in PubChem BioAssay (NCI).

Holding throughout (assay): NCI anticancer screen, dose series, 48 h
The test system of experiment [1] is NCI-H23 lung.
Experiment [2] deals with HCT-15 colon.
Experiment [3] concerns LOX IMVI melanoma.
The test system of experiment [4] is RXF 393 renal.
Experiment [5] relates to SK-MEL-5 melanoma.
For experiment [6], the system named is BT-549 breast.
Experiment [7] relates to NCI-H226 lung.
Experiment [8] deals with SF-268 CNS.
Experiment [9] relates to HOP-92 NSCLC.
Experiment [10] has as its system NCI-H460 lung.

Several values for one entry are separate records, joined by “and”; a condition that tells them apart may be missing. Identical values can stand only once.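 The compound was tested at five concentrations on cells cultured in 96-well plates, with a 48-hour exposure period. GI50 = concentration required for 50% inhibition of growth. TGI denotes the concentration required for complete inhibition of growth.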

With `CN([N-]C(=O)CC(=O)[N-]N(C)C(=S)c1ccccc1)C(=S)c1ccccc1.[Cu+2]`, the GI50 in experiment [1] was 24.1 nM; in experiment [2], 22.8 nM; in experiment [3], under 12.9 nM; in experiment [4] it was 26.6 nM; in [5], 59.9 nM; in experiment [6], 138 nM. In addition, the GI50 is 183 nM in [7], 37 nM in experiment [8], 33.3 nM in experiment [9] and 22.7 nM in [10]. Also, the TGI was 141 nM in experiment [1]; 130 nM in [2]; 68.3 nM in experiment [3]; 72.9 nM in experiment [4]; 192 nM in experiment [5]; 271 nM in experiment [6]. For the same molecule, the TGI is 467 nM in experiment [7], 176 nM in experiment [8], 98 nM in [9] and 140 nM in [10].

For `CCCCCCCCCCCCCCCC[N+](C)(C)C`, the GI50 in experiment [1] is 292 nM and 1460 nM; in experiment [2], 383 nM and 1880 nM; in [4], 96.3 nM and 235 nM; in experiment [5] it was 1560 nM; in experiment [6] it was 267 nM; in experiment [7], 1130 nM. For the same molecule, the GI50 in experiment [8] is 177 nM and 1210 nM; in [9], 91.8 nM; in experiment [10], 204 nM and 1240 nM. Also, the TGI in experiment [1] is 1510 nM and 3800 nM; in [2], 1850 nM and 10100 nM; in [3] it was 332 nM and 3070 nM; in [4] it was 244 nM and 830 nM; in experiment [5], 2950 nM; in experiment [6] it was 873 nM. The TGI is 3070 nM in experiment [7]; 483 nM and 3120 nM in [8]; 353 nM in experiment [9]; 412 nM and 2810 nM in experiment [10].

As for `CN1CCN(c2ccc(NC3=C(Cl)C(=O)c4ncccc4C3=O)cc2C(F)(F)F)CC1`, the GI50 is 1870 nM in experiment [1]; 1390 nM in [2]; 1530 nM in experiment [3]; 1520 nM in [4]; 3520 nM in experiment [5]; 13000 nM in experiment [6]. In addition, the GI50 in experiment [7] was 13000 nM; in [8], 3300 nM; in experiment [9], 1580 nM; in experiment [10] it was 17400 nM. For the same molecule, the TGI was determined as 3870 nM in [1]; 3000 nM in experiment [2]; 2940 nM in [3]; 2910 nM in experiment [4]; 13300 nM in [5]; 26300 nM in experiment [6]. The TGI is 29900 nM in [7], 14000 nM in experiment [8], 3030 nM in experiment [9] and 34800 nM in [10].

For the molecule `Cc1cc2cc(Oc3ccnc(Nc4cccc(CS(=O)(=O)NCCN(C)C)c4)n3)ccc2[nH]1`, the GI50 in [1] was 8800 nM; in experiment [2], 11000 nM; in experiment [3], 3510 nM; in experiment [4] it was 3480 nM; in experiment [5], 1860 nM; in experiment [6], 5030 nM. Further, the GI50 in experiment [7] is 7250 nM; in experiment [8], 3930 nM; in experiment [9] it was 1780 nM; in experiment [10] it was 4740 nM. Moreover, the TGI in [1] stood at 23600 nM; in experiment [2], 24200 nM; in experiment [3], 15000 nM; in [4] it was 15800 nM; in experiment [5], 3500 nM; in [6], 18100 nM. The TGI in [7] is 22100 nM; in experiment [8], 17300 nM; in experiment [9], 5680 nM; in experiment [10] it was 18800 nM.

Take `COc1ccc(-c2ccc(=O)oc2-c2cc(OC)c(OC)c(OC)c2)cc1O`: the GI50 in experiment [1] is 68.9 nM; in [2] it was 13.8 nM; in [3] it was 51 nM; in experiment [4], under 10 nM; in experiment [5] it was under 10 nM; in [6] it was 91.9 nM. Besides, the GI50 in [7] is 199 nM; in experiment [8] it was 60.6 nM; in [10], 24.4 nM. Besides, the TGI in experiment [1] was over 100000 nM; in [2] it was over 20500 nM; in [3], over 100000 nM; in experiment [4], 11 nM; in [5], 3450 nM; in [6], over 100000 nM. For the same molecule, the TGI was over 100000 nM in experiment [7], over 34800 nM in experiment [8] and over 100000 nM in experiment [9].

On to `COc1cc2c3c(n(CCCn4cccn4)c(=O)c2cc1OC)-c1cc2c(cc1C3=O)OCO2`, for which the GI50 was 807 nM in [1]; 14700 nM in experiment [2]; 728 nM in experiment [3]; 5760 nM in experiment [4]; 1480 nM in experiment [5]; 3400 nM in experiment [6]. For the same molecule, the GI50 in experiment [7] was 922 nM; in [8], 586 nM; in [9] it was 1340 nM; in [10], 520 nM. Moreover, the TGI in [1] was 4380 nM; in experiment [2] it was over 100000 nM; in experiment [3] it was 11100 nM; in experiment [4], 27700 nM; in experiment [5], 5240 nM; in [6], over 70000 nM. Moreover, the TGI was 9510 nM in experiment [7], over 100000 nM in experiment [8], 18600 nM in [9] and 13300 nM in [10].

As to `CN1CCN(c2ccc3nc(-c4ccc5nc(-c6ccc(C(F)(F)F)cc6)[nH]c5c4)[nH]c3c2)CC1`, the GI50 in experiment [1] is 1710 nM; in [2] it was 7480 nM; in experiment [3], 1820 nM; in [4], 1530 nM; in [5], 3360 nM; in experiment [6] it was 5910 nM. For the same molecule, the GI50 in [7] was 9590 nM; in experiment [8], 1970 nM; in experiment [9], 2490 nM; in experiment [10] it was 1900 nM. For the same molecule, the TGI in [1] stood at 3500 nM; in [2] it was 24500 nM; in experiment [3], 3360 nM; in [4] it was 3120 nM; in experiment [5], 15500 nM; in experiment [6] it was 22500 nM. Moreover, the TGI in [7] came out at 29900 nM; in experiment [8] it was 3930 nM; in experiment [9], 14700 nM; in experiment [10], 3550 nM.
